These results are taken from ChEMBL document CHEMBL1148160, “Planaxool: a novel cytotoxic cembranoid form the mollusk Planaxis sulcatus” (1993).

The test system of this assay is L1210. The experiment in a line: Cytotoxicity against mouse L1210 cells. The class given is functional.

Compound `C/C1=C\CC[C@]2(C)O[C@H]([C@@H]3OC(=O)[C@]4(OO)CCO[C@@H]2C[C@H]34)[C@H](C)CCC1` [PLANAXOOL] displayed an IC100 of 2.4 µg/mL.
